Data taken from patent publication US6534676B2, “Method to treat chronic heart failure and/or elevated cholesterol levels using 3,5-diiodothyropropionic acid and method to prepare same” (The Arizona Board of Regents on Behalf of the University of …, priority 2001, dated 2003).

Legend:
[1] = Dose-ranging study of DITPA in normal volunteers: thyroid hormone measurements; assay type: in vivo, human; settings: for Thyrotropin: baseline 3.53 ± 1.00; for Thyrotropin / Free T4 / Total T4 / rT3: mean ± SEM; for Free T4: baseline 1.04 ± .04; for Total T4: baseline 8.73 ± .85; for rT3: baseline 23.23 ± 1.71
Method: A dose-ranging study was performed with seven (7) normal volunteers. Study participants comprised men between the ages of 18 and 65 years of age. Before participating in the study, a complete physical examination, electrocardiogram, and echocardiogram were obtained. […] On day 1, these normal volunteers were started on 1.875 mg/kg in two divided doses per day. This treatment regimen was continued for two weeks. At the end of the second week, the initial laboratory studies were repeated. The dose was then doubled to 3.75 mg/kg and the volunteers were treated for two additional weeks. At the end of this time physical examination and all laboratory variables again were measured. Volunteer data were analyzed using Student's paired t-test. Baseline data in DITPA and placebo groups were compared by Student's unpaired t-test. Comparison of placebo and drug treated groups was made by repeated measures ANOVA (SPSS Version 9.5, SPSS Chicago, 11). If P values for drug-time interactions were significant a priori contrasts were performed of the drug-time interaction for two weeks versus baseline. When data were available only at baseline and four week, comparisons were made by difference scores. Baseline values for each participant were subtracted from values after four weeks of treatment and the differences between DITPA and placebo treatments then were compared. […] Table II summarizes thyroid hormone measurements after two and four weeks of treatment with DITPA in normal volunteers.

[2] = Double-blind DITPA versus placebo study in patients with congestive heart failure: clinical effects and tolerability; assay type: in vivo, human; settings: for Weight: baseline 98.7 ± 6.6, mean ± SE; for NY Heart Association functional class: baseline 2.5 ± 0.2; for Diastolic Blood Pressure: baseline 75.8 ± 4.2; for Heart Rate: baseline 81.3 ± 4.4; for Systolic Blood Pressure: baseline 122.8 ± 4.9
Method: In clinical trials discussed below wherein DITPA was orally administered to volunteers and patients, the DITPA was mixed under the supervision of a registered pharmacist with lactose and packed into gelatin capsules containing 50 mg of the active ingredient. Identical capsules were packed with lactose to serve as placebo medication.
Patients were eligible for enrollment in these clinical studies if they had symptoms of heart failure and an ejection fraction of less than 35%. Patients were required to be in sinus rhythm. Treatment with digitalis, angiotensin converting enzyme inhibitors, and diuretics were allowed, but β-adrenergic blocking agents were not permitted.
Three patients in the placebo group and one patient receiving DITPA were taking an HMG-CoA reductase inhibitor. Patients were excluded from the study if they were receiving amiodarone, had unstable angina, myocardial infarction within 6 months, significant aortic stenosis, hepatic or renal insufficiency, anemia (hematocrit<30%), pre-existent thyroid disease, sensitivity to iodine, active cancer or any other life-threatening disease.
(§1) All patients were hospitalized before initiating treatment and a right heart catheterization, radionuclide ejection fraction and echocardiogram were performed. Serum samples were drawn for measurement of thyrotropin, total T4, free T4, and reverse T3.
(§2) DITPA cross-reacted with antibodies for detection of T3, which consequently was not measured. Renal and hepatic function tests also were performed. Patients were randomly assigned in double-blind fashion to receive either DITPA at a dosage of 1.875 mg/kg daily or placebo in two or three divided doses. For the first four days of drug administration patients were monitored on a telemetry unit. Thereafter, weekly electrocardiograms were performed and patients were examined for changes in thyroid or cardiac status or evidence of drug toxicity.
(§3) At the end of two weeks an echocardiogram was obtained. If there was no clinical evidence of progression of heart failure or development of an arrhythmia the dose of DITPA was increased to 3.75 mg/kg daily. After an additional two weeks of treatment with the higher dosage of the drug patients were readmitted to the hospital and the tests performed in the initial evaluation were repeated.
M-mode, two-dimensional, and Doppler echocardiograms were obtained with an ultrasonographic system equipped with a […] transducer (GE VingMed, Milwaukee, Wis.) according to the recommendation of the American Society of Echocardiography. Ejection fraction was measured by gated radionuclide myocardial imaging.
Twenty-two patients underwent the initial right heart catheterization and were randomized to receive the subject drug or placebo. Nineteen patients completed the study (mean age 61.6, range 47 to 76). Patient functional classes, according to the New York Heart Association classification were II (n=12), III (n=7). One patient had dilated cardiomyopathy. The remaining patients had coronary artery disease, which was considered to be the most likely etiology of congestive heart failure. There was one death in a patient receiving placebo. One patient in the DITPA group was withdrawn because of abdominal pain and subsequently found to have cholelithiasis.

[3] = Heart failure patients: right heart catheterization hemodynamics; assay type: in vivo, human
Method: as §1, §2, §3
(§4) Right heart catheterization was performed after the patient had been fasted overnight; no premedication was given. Pulmonary artery, pulmonary capillary wedge and right heart pressures were measured with a 7 Fr Swan-Ganz catheter introduced into the right femoral vein. Blood pressures were recorded with an automated arm cuff system. After an initial stabilization period of 20 to 30 minutes, the resting hemodynamic measurements were obtained. Thermodilution cardiac output measurements were averaged from five recordings after discarding the highest and lowest values. All blood tests were performed in the Clinical Pathology Laboratory at the Southern Arizona Veterans Administration Health Care System.

[4] = Heart failure patients: serum thyroid function tests; assay type: in vivo, human; settings: for Thyrotropin: baseline 2.47 ± 0.6; for FreeT4: baseline 1.19 ± 0.1; for ReverseT3: baseline 197 ± 27
Method: as §1, §2, §3, §4

[5] = Cardiac performance, chronotropic and metabolic effect compared with L-thyroxine (background); assay type: in vivo
From the text: Because of potential adverse effects of thyroid hormone, such as metabolic stimulation and tachycardia, what is required are thyroid hormone analogs with fewer undesirable side effects. […] Like thyroid hormone, DITPA binds to nuclear T3 receptors of the c-erbA proto-oncogene family.

[6] = normal primates; cited from earlier work
[7] = normal volunteers, after 2 weeks (1.875 mg/kg/day)
[8] = normal volunteers, after 4 weeks (3.75 mg/kg/day)
[9] = heart failure patients, after 2 weeks (1.875 mg/kg daily)
[10] = heart failure patients, after 4 weeks (3.75 mg/kg daily)
[11] = serum, after 2 weeks (1.875 mg/kg daily)
[12] = serum, after 4 weeks (3.75 mg/kg daily)

O=C(O)CCc1cc(I)c(Oc2ccc(O)cc2)c(I)c1 [DITPA, 3,5-Diiodothyropropionic acid]
Thyrotropin ([1]; normal volunteers n=7, after 2 weeks (1.875 mg/kg/day)): 0.69 ± .38 mu/L
Thyrotropin ([1]; normal volunteers n=7, after 4 weeks (3.75 mg/kg/day)): 0.44 ± .29 mu/L
Free T4 [1, 7]: 0.95 ± .07 ng/dL
Total T4 [1, 7]: 5.76 ± .39 µg/dL
rT3 [1, 7]: 47.41 ± 7.11 ng/dL
Free T4 [1, 8]: 1.05 ± .06 ng/dL
Total T4 [1, 8]: 5.89 ± .44 µg/dL
rT3 [1, 8]: 69.56 ± 9.93 ng/dL
average values for thyrotropin ([1]; normal volunteers, after two additional weeks at 3.75 mg/kg, normal range 0.48 to 4.0 μU/ml): 0.44±0.29 μU/ml
arrhythmias ([2]; heart failure patients): No arrhythmias were noted
clinical manifestations of hyperthyroidism ([2]; heart failure patients): not observed
frequency or severity of anginal attacks ([2]; heart failure patients): no increase in frequency or severity of anginal attacks
Weight ([2]; heart failure patients n=9, after 4 weeks (last 2 weeks 3.75 mg/kg daily)): 94.7 ± 18.8 kg
Weight ([2]; heart failure patients n=9, oral, after 2 weeks (1.875 mg/kg daily)): 98.2 ± 19.3 kg
decrease in body weight ([2]; heart failure patients, DITPA group, after 4 weeks, P=0.059 vs placebo): 4 kg
NY Heart Association functional class [2, 9]: 2.4 ± 0.2
Diastolic Blood Pressure [2, 9]: 65.7 ± 3.3 mm Hg
Heart Rate [2, 9]: 83.4 ± 6.5 beats/min
Systolic Blood Pressure [2, 9]: 116.2 ± 7.4 mm Hg
NY Heart Association functional class [2, 10]: 2.5 ± 0.2
Radionuclide Ejection Fraction ([2]; heart failure patients, after 4 weeks (3.75 mg/kg daily), baseline 18.1 ± 2.4): 20.6 ± 3.2%
Diastolic Blood Pressure [2, 10]: 66.4 ± 3.6 mm Hg
Heart Rate [2, 10]: 82.2 ± 4.7 beats/min
Systolic Blood Pressure [2, 10]: 119.1 ± 6.1 mm Hg
tolerability ([2]; patients with ischemic heart disease / heart failure): well tolerated
Cardiac Index ([3]; after 4 weeks, baseline 2.10 ± 0.14, P 0.04 vs placebo): 2.54 ± 0.16 liters/min/m^2
Mean Arterial Pressure ([3]; after 4 weeks, baseline 96.2 ± 6.7): 92.0 ± 5.7 mm Hg
Systemic Vascular Resistance ([3]; after 4 weeks, baseline 3,465 ± 319, P 0.02 vs placebo): 2,644 ± 257 dynes x sec x cm^−5
Heart Rate ([3]; heart failure patients n=9, right heart catheterization, after 4 weeks of treatment, baseline 84.8 ± 4.9): 89.6 ± 5.3
Right atrial pressure ([3]; right heart catheterization, after 4 weeks, baseline 8.1 ± 1.7): 10.5 ± 1.8 mm Hg
Pulmonary artery pressures, Wedge ([3]; right heart catheterization, after 4 weeks, baseline 24.0 ± 3.9): 21.8 ± 2.75 mm Hg
Pulmonary artery pressures, Diastolic ([3]; right heart catheterization, after 4 weeks, baseline 25.1 ± 4.1): 25.4 ± 2.5 mm Hg
Pulmonary artery pressures, Mean ([3]; right heart catheterization, after 4 weeks, baseline 30.1 ± 5.0): 33.4 ± 3.2 mm Hg
Pulmonary artery pressures, Systolic ([3]; right heart catheterization, after 4 weeks, baseline 45.0 ± 6.2): 49.1 ± 5.3 mm Hg
Cardiac Output ([3]; thermodilution, after 4 weeks, baseline 4.50 ± 0.36, P 0.07 vs placebo): 5.30 ± 0.36 L/min
Thyrotropin ([4]; heart failure patients n=9, serum, after 2 weeks (1.875 mg/kg daily)): 0.04 ± 01^++ mU/L
FreeT4 [4, 11]: 1.17 ± 0.1^ ng/dL
ReverseT3 [4, 11]: 477 ± 83^++ ng/dL
FreeT4 [4, 12]: 1.17 ± 0.15 ng/dL
Thyrotropin [4, 12]: 0.018 ± 0.0004 mU/L
ReverseT3 [4, 12]: 559 ± 108 ng/dL
chronotropic effect relative to L-thyroxine ([5]; at increased cardiac performance): approximately half of the chronotropic effect
metabolic stimulation relative to L-thyroxine ([5]; in vivo): less metabolic stimulation than L-thyroxine
in vivo force-frequency and relaxation-frequency relationships [6]: enhances the in vivo force-frequency and relaxation-frequency relationships
